Earlier results on 1 substance are cited in patent publication US4127533A, “Novel octapeptides, intermediates therefor, and compositions and methods employing said octapeptides” (priority 1977, dated 1978).

Data set [1] deals with brain opiate receptor sites.
The subject of data set [2] is rat. As to conditions: injected directly into the brain of the rat.

“H-Tyr-Gly-Gly-Phe-Met-OH [methionine enkephalin]”: the “binding to partially purified brain opiate receptor sites” value in data set [1] is listed as “binds stereo-specifically”. The analgesic activity entry in data set [2] is listed as “only weak analgesic agent of short duration”.
